# From ChEMBL document CHEMBL4813932, “Terpenoid Constituents of Perovskia artemisioides Aerial Parts with Inhibitory Effects on Bacterial Biofilm Growth” (2021)
# Key:
# Assay in all cases: microbe, parasite or virus in culture
# Type in all cases: functional
# [1] = tested on: Acinetobacter baumannii; conditions: ATCC 19606 = CIP 70.34 = JCM 6841, time 48 hrs
# Description: Antibiofilm activity against Acinetobacter baumannii ATCC 19606 assessed as inhibition of bacterial metabolism within the biofilm at 4 ug/ml measured after 48 hrs by MTT assay relative to control
# [2] = tested on: Pectobacterium carotovorum; conditions: ATCC 15713, time 48 hrs
# Description: Antibiofilm activity against Pectobacterium carotovorum ATCC 15713 assessed as inhibition of biofilm formation at 4 ug/ml measured after 48 hrs by crystal violet staining based assay relative to control
# [3] = tested on: Staphylococcus aureus; conditions: ATCC 25923, time 48 hrs
# Description: Antibiofilm activity against Staphylococcus aureus ATCC 25923 assessed as inhibition of biofilm formation at 8 ug/ml measured after 48 hrs by crystal violet staining based assay relative to control
# [4] = tested on: Pectobacterium carotovorum; conditions: ATCC 15713, time 48 hrs; remark: listed apart in the source
# Description: Antibiofilm activity against Pectobacterium carotovorum ATCC 15713 assessed as inhibition of bacterial metabolism within the biofilm at 8 ug/ml measured after 48 hrs by MTT assay relative to control
# [5] = tested on: Pectobacterium carotovorum; conditions: ATCC 15713, time 48 hrs; remark: listed apart in the source
# Description: Antibiofilm activity against Pectobacterium carotovorum ATCC 15713 assessed as inhibition of bacterial metabolism within the biofilm at 4 ug/ml measured after 48 hrs by MTT assay relative to control
# [6] = tested on: Acinetobacter baumannii; conditions: ATCC 19606 = CIP 70.34 = JCM 6841, time 48 hrs; remark: listed apart in the source
# Description: Antibiofilm activity against Acinetobacter baumannii ATCC 19606 assessed as inhibition of bacterial metabolism within the biofilm at 8 ug/ml measured after 48 hrs by MTT assay relative to control
# [7] = tested on: Pseudomonas aeruginosa; conditions: ATCC 50071, time 48 hrs
# Description: Antibiofilm activity against Pseudomonas aeruginosa ATCC 50071 assessed as inhibition of bacterial metabolism within the biofilm at 4 ug/ml measured after 48 hrs by MTT assay relative to control
# [8] = tested on: Escherichia coli; conditions: DSM 8579, time 48 hrs
# Description: Antibiofilm activity against Escherichia coli DSM 8579 assessed as inhibition of bacterial metabolism within the biofilm at 80 ug/ml measured after 48 hrs by MTT assay relative to control
# [9] = tested on: Acinetobacter baumannii; conditions: ATCC 19606 = CIP 70.34 = JCM 6841, time 48 hrs; remark: listed apart in the source
# Description: Antibiofilm activity against Acinetobacter baumannii ATCC 19606 assessed as inhibition of biofilm formation at 8 ug/ml measured after 48 hrs by crystal violet staining based assay relative to control
# [10] = tested on: Listeria monocytogenes; conditions: ATCC 7644, time 48 hrs
# Description: Antibiofilm activity against Listeria monocytogenes ATCC 7644 assessed as inhibition of biofilm formation at 8 ug/ml measured after 48 hrs by crystal violet staining based assay relative to control
# [11] = tested on: Pseudomonas aeruginosa; conditions: ATCC 50071, time 48 hrs; remark: listed apart in the source
# Description: Antibiofilm activity against Pseudomonas aeruginosa ATCC 50071 assessed as inhibition of bacterial metabolism within the biofilm at 8 ug/ml measured after 48 hrs by MTT assay relative to control
# [12] = tested on: Staphylococcus aureus; conditions: ATCC 25923, time 48 hrs; remark: listed apart in the source
# Description: Antibiofilm activity against Staphylococcus aureus ATCC 25923 assessed as inhibition of biofilm formation at 4 ug/ml measured after 48 hrs by crystal violet staining based assay relative to control
# [13] = tested on: Pectobacterium carotovorum; conditions: ATCC 15713, time 48 hrs; remark: listed apart in the source
# Description: Antibiofilm activity against Pectobacterium carotovorum ATCC 15713 assessed as inhibition of biofilm formation at 8 ug/ml measured after 48 hrs by crystal violet staining based assay relative to control
# [14] = tested on: Staphylococcus aureus; conditions: ATCC 25923, time 48 hrs; remark: listed apart in the source
# Description: Antibiofilm activity against Staphylococcus aureus ATCC 25923 assessed as inhibition of bacterial metabolism within the biofilm at 8 ug/ml measured after 48 hrs by MTT assay relative to control
# [15] = tested on: Pseudomonas aeruginosa; conditions: ATCC 50071, time 48 hrs; remark: listed apart in the source
# Description: Antibiofilm activity against Pseudomonas aeruginosa ATCC 50071 assessed as inhibition of biofilm formation at 8 ug/ml measured after 48 hrs by crystal violet staining based assay relative to control
# [16] = tested on: Listeria monocytogenes; conditions: ATCC 7644, time 48 hrs; remark: listed apart in the source
# Description: Antibiofilm activity against Listeria monocytogenes ATCC 7644 assessed as inhibition of bacterial metabolism within the biofilm at 8 ug/ml measured after 48 hrs by MTT assay relative to control
# [17] = tested on: Staphylococcus aureus; conditions: ATCC 25923, time 48 hrs; remark: listed apart in the source
# Description: Antibiofilm activity against Staphylococcus aureus ATCC 25923 assessed as inhibition of bacterial metabolism within the biofilm at 4 ug/ml measured after 48 hrs by MTT assay relative to control
# [18] = tested on: Pseudomonas aeruginosa; conditions: ATCC 50071, time 48 hrs; remark: listed apart in the source
# Description: Antibiofilm activity against Pseudomonas aeruginosa ATCC 50071 assessed as inhibition of biofilm formation at 4 ug/ml measured after 48 hrs by crystal violet staining based assay relative to control
# [19] = tested on: Listeria monocytogenes; conditions: ATCC 7644, time 48 hrs; remark: listed apart in the source
# Description: Antibiofilm activity against Listeria monocytogenes ATCC 7644 assessed as inhibition of biofilm formation at 4 ug/ml measured after 48 hrs by crystal violet staining based assay relative to control
# [20] = tested on: Acinetobacter baumannii; conditions: ATCC 19606 = CIP 70.34 = JCM 6841, time 48 hrs; remark: listed apart in the source
# Description: Antibiofilm activity against Acinetobacter baumannii ATCC 19606 assessed as inhibition of biofilm formation at 4 ug/ml measured after 48 hrs by crystal violet staining based assay relative to control
# [21] = tested on: Escherichia coli; conditions: DSM 8579, time 48 hrs; remark: listed apart in the source
# Description: Antibiofilm activity against Escherichia coli DSM 8579 assessed as inhibition of biofilm formation at 80 ug/ml measured after 48 hrs by crystal violet staining based assay relative to control
# [22] = tested on: Escherichia coli; conditions: DSM 8579, time 48 hrs; remark: listed apart in the source
# Description: Antibiofilm activity against Escherichia coli DSM 8579 assessed as inhibition of bacterial metabolism within the biofilm at 40 ug/ml measured after 48 hrs by MTT assay relative to control
# [23] = tested on: Listeria monocytogenes; conditions: ATCC 7644, time 48 hrs; remark: listed apart in the source
# Description: Antibiofilm activity against Listeria monocytogenes ATCC 7644 assessed as inhibition of bacterial metabolism within the biofilm at 4 ug/ml measured after 48 hrs by MTT assay relative to control
# [24] = tested on: Escherichia coli; conditions: DSM 8579, time 48 hrs; remark: listed apart in the source
# Description: Antibiofilm activity against Escherichia coli DSM 8579 assessed as inhibition of biofilm formation at 40 ug/ml measured after 48 hrs by crystal violet staining based assay relative to control
Compound,inhibition at 4 µg/mL [1] [%],inhibition at 4 µg/mL [2] [%],inhibition at 8 µg/mL [3] [%],inhibition at 8 µg/mL [4] [%],inhibition at 4 µg/mL [5] [%],inhibition at 8 µg/mL [6] [%],inhibition at 4 µg/mL [7] [%],inhibition at 80 µg/mL [8] [%],inhibition at 8 µg/mL [9] [%],inhibition at 8 µg/mL [10] [%],inhibition at 8 µg/mL [11] [%],inhibition at 4 µg/mL [12] [%],inhibition at 8 µg/mL [13] [%],inhibition at 8 µg/mL [14] [%],inhibition at 8 µg/mL [15] [%],inhibition at 8 µg/mL [16] [%],inhibition at 4 µg/mL [17] [%],inhibition at 4 µg/mL [18] [%],inhibition at 4 µg/mL [19] [%],inhibition at 4 µg/mL [20] [%],other results
CC(C)c1cc2c(c(O)c1O)[C@@]13CCCC(C)(C)[C@@H]1[C@@H](O)[C@@H]2OC3=O [ISOROSMANOL],2.5,66.3,56.2,62.8,56.4,48.5,0,52.1,43.9,63.9,14.7,0,66.9,17,80.5,25.2,0,75.4,25,13.2,inhibition at 80 µg/mL [21]: 53%; inhibition at 40 µg/mL [22]: 42.2%; inhibition at 4 µg/mL [23]: 16.2%; inhibition at 40 µg/mL [24]: 42.9%
CC(C)c1cc2c(c(O)c1O)[C@@]13CCCC(C)(C)[C@@H]1[C@H](OC3=O)[C@H]2O [ROSMANOL],6.9,0,79.9,46.6,45.6,20.3,3.7,0,55.5,68.7,9.5,45.1,26.2,70.6,73.1,39.8,63.8,68.4,47.3,44.2,inhibition at 80 µg/mL [21]: 0%; inhibition at 40 µg/mL [22]: 0%; inhibition at 4 µg/mL [23]: 24.9%; inhibition at 40 µg/mL [24]: 0%
CC(C)c1cc2c(c(O)c1O)[C@@]13CCCC(C)(C)[C@@H]1[C@H](OC3=O)[C@@H]2O [EPIROSMANOL],8.9,33.6,81.7,56.3,32.5,11.1,0,0,56.9,63.4,9.2,68.4,53.8,23.6,74.8,55.6,0,70.7,0,26.3,inhibition at 80 µg/mL [21]: 11.3%; inhibition at 40 µg/mL [22]: 0%; inhibition at 4 µg/mL [23]: 24.7%; inhibition at 40 µg/mL [24]: 0%
CC(C)c1cc2c(c(O)c1O)[C@@]13CCCC(C)(C)[C@@H]1C[C@@H]2OC3=O [CARNOSOL],7.1,49.1,100,69.1,35.8,49,0,0,47.2,46.7,5.4,95.9,100,84.8,88.5,40.4,68.2,39,17.2,43.2,inhibition at 80 µg/mL [21]: 0%; inhibition at 40 µg/mL [22]: 0%; inhibition at 4 µg/mL [23]: 27.6%; inhibition at 40 µg/mL [24]: 0%
